According to patent US20230295234A1, “ANTIMICROBIAL PEPTIDOMIMETICS” (SPEXIS AG, priority 2020, published 2023):
Where two headings read alike, the source gives them in different places. Bridge positions count the residues as written; N and C are the ends. Square brackets hold non-standard residues; d marks the D form. Peptide text beside a SMILES is read from it. * marks the point of attachment. Val(Nα-amidino) = CC(C)[C@H](NC(=N)N)C(=O)*; Hyp = O=C(O)[C@@H]1C[C@@H](O)CN1; aThr = C[C@H](O)[C@H](N)C(=O)O; Pen = CC(C)(S)[C@H](N)C(=O)O; dDab = NCC[C@@H](N)C(=O)O; Dab = NCC[C@H](N)C(=O)O

Tests used:
[1] = tested on: human red blood cells (hRBC); test: Hemolysis of human red blood cells; assay type: cell-based; conditions: red cells of human, 1 h
Method in brief: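 Percent hemolysis is OD540 of peptide-treated supernatant relative to water-lysed cells. Each peptide was tested at 200 μg/mL against 20% (v/v) washed human erythrocytes. Incubation was 1 h at 37 °C, 300 rpm.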

[2] = tested on: Escherichia coli ATCC 25922; conditions: ATCC 25922
Method in brief: (§1)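 Peptides were made up as 1 mg/mL stocks in sterile water. Colonies in 0.85% saline were set to 0.5 McFarland, then diluted in cation-adjusted Mueller-Hinton II broth to about 5×10^5 CFU/mL. Inoculum was combined with two-fold serial peptide dilutions in water containing 0.002% (final) polysorbate 80.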

[3] = tested on: Escherichia coli MCR-1 Af 45
Method in brief: as §1

[4] = tested on: Klebsiella pneumoniae SSI3010; conditions: SSI3010
Method in brief: as §1

[5] = Mueller-Hinton broth II, 18-20 hours at 35° C.

Row | Escherichia coli ATCC 25922 MIC [2] | Escherichia coli MCR-1 Af 45 MIC ([3]; MCR-1 Af 45) | Klebsiella pneumoniae SSI3010 MIC [4] | SMILES | Hemolysis at 0.2 g/L [1] | Escherichia coli MCR-1 Af 45 MIC [3, 5]
1 | ≤0.0625 µg/mL | 0.0625 µg/mL | 0.0625 µg/mL | CCCC[C@H](NC(=O)[C@H](CCCNC(=N)N)NC(=O)[C@H](CCCNC(=N)N)NC(=O)[C@@H]1CSSC[C@H](NC(=O)[C@H](Cc2ccc(O)cc2)NC(=O)[C@@H](NC(=O)[C@@H](NC(=O)[C@@H]2CCCN2C(=O)[C@@H](NC(=O)[C@@H]2CCCN2C(=O)[C@H](CCCCN)NC(=O)[C@@H](N)CCCCN)C(C)C)[C@@H](C)CC)[C@@H](C)CC)C(=O)N[C@@H](CC(N)=O)C(=O)N[C@@H](CCCNC(=N)N)C(=O)N[C@@H](CCN)C(=O)N[C@@H]([C@@H](C)O)C(=O)N[C@H](CCN)C(=O)N[C@@H](CCN)C(=O)N1)C(=O)O [Example 65] (HELM PEPTIDE1{K.K.P.V.P.I.I.Y.C.N.R.[Dab].T.[NCC[C@@H](N[*:1])C(=O)[*:2]].[Dab].C.R.R.[Nle]}$PEPTIDE1,PEPTIDE1,9:R3-16:R3$$$V2.0) | 0% | –
2 | ≤0.03125 µg/mL | ≤0.03125 µg/mL | 0.0625 µg/mL | CC[C@H](C)[C@H](NC(=O)[C@@H](NC(=O)[C@@H]1CCCN1C(=O)[C@@H](NC(=O)[C@@H]1CCCN1C(=O)[C@H](CCCCN)NC(=O)CNCCCN)C(C)C)[C@@H](C)CC)C(=O)N[C@@H](Cc1ccc(O)cc1)C(=O)N[C@H]1CSSC[C@@H](C(=O)N[C@@H](CCN)C(=O)N[C@@H](CCCNC(=N)N)C(=O)N[C@@H](Cc2ccc(O)cc2)C(=O)O)NC(=O)[C@H](CCCCN)NC(=O)[C@@H](CCN)NC(=O)[C@H]([C@@H](C)O)NC(=O)[C@H](CCN)NC(=O)[C@H](CCCNC(=N)N)NC(=O)[C@H](CC(N)=O)NC1=O [Example 98] (HELM PEPTIDE1{[NCCCNCC(=O)[*:2]].K.P.V.P.I.I.Y.C.N.R.[Dab].T.[NCC[C@@H](N[*:1])C(=O)[*:2]].K.C.[Dab].R.Y}$PEPTIDE1,PEPTIDE1,9:R3-16:R3$$$V2.0) | 0% | –
3 | 0.0625 µg/mL | 0.125 µg/mL | 0.25 µg/mL | CC[C@H](C)[C@H](NC(=O)[C@@H]1C[C@@H](N)CN1C(=O)[C@@H](NC(=O)[C@@H]1CCCN1C(=O)[C@H](CCCCN)NC(=O)[C@@H](N)CCCCN)C(C)C)C(=O)N[C@@H](CCCNC(=N)N)C(=O)N[C@@H](Cc1ccc(O)cc1)C(=O)N[C@@H]1C(=O)N[C@@H](CC(N)=O)C(=O)N[C@@H](CCCNC(=N)N)C(=O)N[C@@H](CCN)C(=O)N[C@@H]([C@@H](C)O)C(=O)N[C@H](CCN)C(=O)N[C@@H](CCCCN)C(=O)N[C@H](C(=O)N[C@@H](CCN)C(=O)N[C@@H](CCCNC(=N)N)C(=O)N[C@@H](Cc2ccc(O)cc2)C(=O)O)CSSC1(C)C [Example 115, Lys-Lys-Pro-Val-Pro((4R)NH2)-Ile-Arg-Tyr-Pen-Asn-Arg-^Dab-Thr-^DDab-Lys-Cys-Dab-Arg-Tyr] (HELM PEPTIDE1{K.K.P.V.[N[C@@H]1C[C@@H](C(=O)[*:2])N([*:1])C1].I.R.Y.[Pen].N.R.[Dab].T.[NCC[C@@H](N[*:1])C(=O)[*:2]].K.C.[Dab].R.Y}$PEPTIDE1,PEPTIDE1,9:R3-16:R3$$$V2.0) | 0% | –
4 | 0.0625 µg/mL | 0.0625 µg/mL | 0.25 µg/mL | CC[C@H](C)[C@H](NC(=O)[C@@H](NC(=O)[C@@H]1CCCN1C(=O)[C@@H](NC(=O)[C@@H]1CCCN1C(=O)[C@H](CCCCN)NC(=O)[C@@H](N)CCCCN)C(C)C)[C@@H](C)CC)C(=O)N[C@@H](Cc1ccc(O)cc1)C(=O)N[C@H]1CSSC[C@@H](C(=O)N[C@@H](CCN)C(=O)N[C@@H](CCCNC(=N)N)C(=O)N[C@@H](CC(C)(C)C)C(=O)O)NC(=O)[C@H](CCCCN)NC(=O)[C@@H](CCN)NC(=O)[C@H]([C@@H](C)O)NC(=O)[C@H](CCN)NC(=O)[C@H](CCCNC(=N)N)NC(=O)[C@H](CC(N)=O)NC1=O [Example 83] (HELM PEPTIDE1{K.K.P.V.P.I.I.Y.C.N.R.[Dab].T.[NCC[C@@H](N[*:1])C(=O)[*:2]].K.C.[Dab].R.[CC(C)(C)C[C@H](N[*:1])C(=O)O]}$PEPTIDE1,PEPTIDE1,9:R3-16:R3$$$V2.0) | 0% | –
5 | ≤0.03125 µg/mL | ≤0.03125 µg/mL | 0.0625 µg/mL | CC[C@H](C)[C@H](NC(=O)[C@@H](NC(=O)[C@@H]1C[C@@H](N)CN1C(=O)[C@@H](NC(=O)[C@@H]1CCCN1)C(C)C)[C@@H](C)CC)C(=O)N[C@@H](Cc1ccc(O)cc1)C(=O)N[C@@H]1C(=O)N[C@@H](CC(N)=O)C(=O)N[C@@H](CCCNC(=N)N)C(=O)N[C@@H](CCN)C(=O)N[C@@H]([C@@H](C)O)C(=O)N[C@H](CCN)C(=O)N[C@@H](CCCCN)C(=O)N[C@H](C(=O)N[C@@H](CCN)C(=O)N[C@@H](CCCNC(=N)N)C(=O)N[C@@H](Cc2ccc(O)cc2)C(=O)O)CSSC1(C)C [Example 25, Pro-Val-Pro((4R)NH2)-Ile-Ile-Tyr-Pen-Asn-Arg-Dab-Thr-^DDab-Lys-Cys-Dab-Arg-Tyr] (HELM PEPTIDE1{P.V.[N[C@@H]1C[C@@H](C(=O)[*:2])N([*:1])C1].I.I.Y.[Pen].N.R.[Dab].T.[NCC[C@@H](N[*:1])C(=O)[*:2]].K.C.[Dab].R.Y}$PEPTIDE1,PEPTIDE1,7:R3-14:R3$$$V2.0) | 0% | –

Row | SMILES | Escherichia coli ATCC 25922 MIC [2] | Escherichia coli MCR-1 Af 45 MIC ([3]; MCR-1 Af 45) | Klebsiella pneumoniae SSI3010 MIC [4] | Hemolysis at 0.2 g/L [1] | Escherichia coli MCR-1 Af 45 MIC [3, 5]
6 | CC[C@H](C)[C@H](NC(=O)[C@@H]1C[C@@H](O)CN1C(=O)[C@@H](NC(=N)N)C(C)C)C(=O)N[C@H](C(=O)N[C@@H](Cc1ccc(O)cc1)C(=O)N[C@@H]1C(=O)N[C@@H](CC(N)=O)C(=O)N[C@@H](CCCNC(=N)N)C(=O)N[C@@H](CCN)C(=O)N[C@@H]([C@@H](C)O)C(=O)N[C@H](CCN)C(=O)N[C@@H](CCCCN)C(=O)N[C@H](C(=O)N[C@@H](Cc2ccc(O)cc2)C(=O)N[C@@H](CCCNC(=N)N)C(=O)N[C@@H](Cc2ccc(O)cc2)C(=O)O)CSSC1(C)C)[C@H](C)O [Example 201] ({Val(Nα-amidino)}-[Hyp]I[aThr]Y[Pen]NR[Dab]T[dDab]KCYRY-OH; disulfide 5-12) | 0.5 µg/mL | – | 0.5 µg/mL | 0% | 0.25 µg/mL
7 | CC[C@H](C)[C@H](NC(=O)[C@@H]1C[C@@H](O)CN1C(=O)[C@@H](N)C(C)C)C(=O)N[C@H](C(=O)N[C@@H](Cc1ccc(O)cc1)C(=O)N[C@@H]1C(=O)N[C@@H](CC(N)=O)C(=O)N[C@@H](CCCNC(=N)N)C(=O)N[C@@H](CCN)C(=O)N[C@@H]([C@@H](C)O)C(=O)N[C@H](CCN)C(=O)N[C@@H](Cc2c[nH]c3ccccc23)C(=O)N[C@H](C(=O)N[C@@H](CCN)C(=O)N[C@@H](CCCNC(=N)N)C(=O)N[C@@H](Cc2ccc(O)cc2)C(=O)O)CSSC1(C)C)[C@@H](C)O [Example 172] (HELM PEPTIDE1{V.[Hyp].I.T.Y.[Pen].N.R.[Dab].T.[NCC[C@@H](N[*:1])C(=O)[*:2]].W.C.[Dab].R.Y}$PEPTIDE1,PEPTIDE1,6:R3-13:R3$$$V2.0) | 0.5 µg/mL | – | 0.5 µg/mL | 0% | 0.5 µg/mL
